{
  "source": "patent US8759535B2",
  "about": "“Substituted fused imidazole derivatives, pharmaceutical compositions, and methods of use thereof” (High Point Pharmaceuticals, LLC, priority 2010, dated 2014)",
  "test_system": "HMOX1",
  "assay": "HMOX1 Protein Assay (immunostaining of HO-1 in NHLF cells, GE InCell 1000)",
  "type": "cell-based",
  "settings": "Homo sapiens, fold change above DMSO treated cells, 16 h; for fold induction at 3 µM: 3 μM compound (asterisk); for fold induction at 5 µM: 5 μM compound",
  "summary_of_the_method": "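NHLF cells seeded overnight in FGM-2, then exposed to compound or DMSO vehicle for 16 h, fixed, and immunostained for HO-1 with Hoechst nuclear counterstain; imaged on InCell 1000. Values are fold change over DMSO-treated cells, generally at 5 μM (0.8% DMSO), with asterisked entries at 3 μM.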",
  "note": "Structures can show the parent of a compound that is named as a salt.",
  "data": [
    {"compound": "Cn1c(Nc2nc3ccc(Cl)cc3s2)nc2cc(C(=O)NC[C@H]3CC[C@H](O)CC3)ccc21", "note": "[Example 233, 2-(6-Chloro-benzothiazol-2-ylamino)-1-methyl-1H-benzoimidazole-5-carboxylic acid (trans-4-hydroxy-cyclohexylmethyl)-amide]", "values": [
      {"measurement": "fold induction at 3 µM", "value": 28}
    ]},
    {"compound": "Cn1c(Nc2nc3ccc(C(F)(F)F)cc3s2)nc2cc(C(=O)NC[C@H]3CC[C@H](O)CC3)ccc21", "note": "[Example 234, 1-Methyl-2-(6-trifluoromethyl-benzothiazol-2-ylamino)-1H-benzoimidazole-5-carboxylic acid (trans-4-hydroxy-cyclohexylmethyl)-amide]", "values": [
      {"measurement": "fold induction at 3 µM", "value": 30.9}
    ]},
    {"compound": "Cn1c(Nc2nc3ccc(Cl)cc3s2)nc2cc(C(=O)NCCOCCO)ccc21", "note": "[Example 235, 2-(6-Chloro-benzothiazol-2-ylamino)-1-methyl-1H-benzoimidazole-5-carboxylic acid [2-(2-hydroxy-ethoxy)-ethyl]-amide]", "values": [
      {"measurement": "fold induction at 5 µM", "value": 37.7}
    ]},
    {"compound": "Cn1c(Nc2nc3ccc(C(F)(F)F)cc3s2)nc2cc(C(=O)NCCOCCO)ccc21", "note": "[Example 236, 1-Methyl-2-(6-trifluoromethyl-benzothiazol-2-ylamino)-1H-benzoimidazole-5-carboxylic acid [2-(2-hydroxy-ethoxy)-ethyl]-amide]", "values": [
      {"measurement": "fold induction at 5 µM", "value": 45.7}
    ]},
    {"compound": "Cn1c(Nc2nc3ccc(OC(F)(F)F)cc3s2)nc2cc(C(=O)NCCOCCO)c(F)cc21", "note": "[Example 237, 6-Fluoro-1-methyl-2-(6-trifluoromethoxy-benzothiazol-2-ylamino)-1H-benzoimidazole-5-carboxylic acid [2-(2-hydroxy-ethoxy)-ethyl]-amide]", "values": [
      {"measurement": "fold induction at 5 µM", "value": 30.6}
    ]},
    {"compound": "Cn1c(Nc2nc3ccc(OC(F)(F)F)cc3s2)nc2cc(C(=O)NCCOCCO)cnc21", "note": "[Example 238, 3-Methyl-2-(6-trifluoromethoxy-benzothiazol-2-ylamino)-3H-imidazo[4,5-b]pyridine-6-carboxylic acid [2-(2-hydroxy-ethoxy)-ethyl]-amide]", "values": [
      {"measurement": "fold induction at 5 µM", "value": 33}
    ]},
    {"compound": "CNCCn1c(Nc2nc3ccc(OC(F)(F)F)cc3s2)nc2cc(C(=O)NCCOCCO)ccc21", "note": "[Example 239, 1-(2-Methylamino-ethyl)-2-(6-trifluoromethoxy-benzothiazol-2 ylamino)-1H-benzoimidazole-5-carboxylic acid[2-(2-hydroxy-ethoxy)-ethyl]-amide hydrochloride]", "values": [
      {"measurement": "fold induction at 3 µM", "value": 10}
    ]},
    {"compound": "CNCCn1c(Nc2nc3ccc(Cl)cc3s2)nc2cc(C(=O)NCCOCCO)ccc21", "note": "[Example 240, 2-(6-Chloro-benzothiazol-2-ylamino)-1-(2-methylamino-ethyl)-1H-benzoimidazole-5-carboxylic acid [2-(2-hydroxy-ethoxy)-ethyl]-amide hydrochloride]", "values": [
      {"measurement": "fold induction at 5 µM", "value": 35.4}
    ]},
    {"compound": "COCCn1c(Nc2nc3ccc(OC(F)(F)F)cc3s2)nc2cc(C(=O)NCCOCCO)ccc21", "note": "[Example 241, 1-(2-Methoxy-ethyl)-2-(6-trifluoromethoxy-benzothiazol-2-ylamino)-1H-benzoimidazole-5-carboxylic acid [2-(2-hydroxy-ethoxy)-ethyl]-amide]", "values": [
      {"measurement": "fold induction at 5 µM", "value": 23.7}
    ]},
    {"compound": "C[C@H](CO)OCCNC(=O)c1ccc2c(c1)nc(Nc1nc3ccc(OC(F)(F)F)cc3s1)n2C", "note": "[Example 242, 1-Methyl-2-(6-trifluoromethoxy-benzothiazol-2-ylamino)-1H-benzoimidazole-5-carboxylic acid [2-((R)-2-hydroxy-1-methyl-ethoxy)-ethyl]-amide]", "values": [
      {"measurement": "fold induction at 3 µM", "value": 28.1}
    ]},
    {"compound": "C[C@H](CO)OCCNC(=O)c1ccc2c(c1)nc(Nc1nc3ccc(Cl)cc3s1)n2C", "note": "[Example 243, 2-(6-Chloro-benzothiazol-2-ylamino)-1-methyl-1H-benzoimidazole-5-carboxylic acid [2-((R)-2-hydroxy-1-methyl-ethoxy)-ethyl]-amide]", "values": [
      {"measurement": "fold induction at 3 µM", "value": 15.2}
    ]},
    {"compound": "CC(O)COCCNC(=O)c1ccc2c(c1)nc(Nc1nc3ccc(OC(F)(F)F)cc3s1)n2C", "note": "(stereo not drawn) [Example 244, 1-Methyl-2-(6-trifluoromethoxy-benzothiazol-2-ylamino)-1H-benzoimidazole-5-carboxylic acid [2-(2-hydroxy-propoxy)-ethyl]-amide]", "values": [
      {"measurement": "fold induction at 5 µM", "value": 28}
    ]},
    {"compound": "Cn1c(Nc2nc3ccc(OC(F)(F)F)cc3s2)nc2cc(C(=O)NCCOCC(C)(C)O)ccc21", "note": "[Example 245, 1-Methyl-2-(6-trifluoromethoxy-benzothiazol-2-ylamino)-1H-benzoimidazole-5-carboxylic acid [2-(2-hydroxy-2-methyl-propoxy)-ethyl]-amide]", "values": [
      {"measurement": "fold induction at 5 µM", "value": 33.1}
    ]},
    {"compound": "Cn1c(Nc2nc3ccc(OC(F)(F)F)cc3s2)nc2cc(C(=O)NCCOCCCO)ccc21", "note": "[Example 246, 1-Methyl-2-(6-trifluoromethoxy-benzothiazol-2-ylamino)-1H-benzoimidazole-5-carboxylic acid [2-(3-hydroxy-propoxy)-ethyl]-amide]", "values": [
      {"measurement": "fold induction at 5 µM", "value": 76.5}
    ]},
    {"compound": "Cn1c(Nc2nc3ccc(OC(F)(F)F)cc3s2)nc2cc(C(=O)NCCOCCCF)ccc21", "note": "[Example 247, 1-Methyl-2-(6-trifluoromethoxy-benzothiazol-2-ylamino)-1H-benzoimidazole-5-carboxylic acid [2-(3-fluoro-propoxy)-ethyl]-amide]", "values": [
      {"measurement": "fold induction at 5 µM", "value": 28.3}
    ]},
    {"compound": "Cn1c(Nc2nc3ccc(Cl)cc3s2)nc2cc(C(=O)NCCOCCCO)ccc21", "note": "[Example 248, 2-(6-Chloro-benzothiazol-2-ylamino)-1-methyl-1H-benzoimidazole-5-carboxylic acid [2-(3-hydroxy-propoxy)-ethyl]-amide]", "values": [
      {"measurement": "fold induction at 5 µM", "value": 58.7}
    ]},
    {"compound": "Cn1c(Nc2nc3ccc(Cl)cc3s2)nc2cc(C(=O)NCCOCCCF)ccc21", "note": "[Example 249, 2-(6-Chloro-benzothiazol-2-ylamino)-1-methyl-1H-benzoimidazole-5-carboxylic acid [2-(3-fluoro-propoxy)-ethyl]-amide]", "values": [
      {"measurement": "fold induction at 5 µM", "value": 31.2}
    ]},
    {"compound": "Cn1c(Nc2nc3ccc(OC(F)(F)F)cc3s2)nc2cc(C(=O)NCCCOCCO)ccc21", "note": "[Example 250, 1-Methyl-2-(6-trifluoromethoxy-benzothiazol-2-ylamino)-1H-benzoimidazole-5-carboxylic acid [3-(2-hydroxy-ethoxy)-propyl]-amide]", "values": [
      {"measurement": "fold induction at 3 µM", "value": 25.1}
    ]},
    {"compound": "Cn1c(Nc2nc3ccc(OC(F)(F)F)cc3s2)nc2cc(C(=O)NCCc3ccc(O)cc3)ccc21", "note": "[Example 251, 1-Methyl-2-(6-trifluoromethoxy-benzothiazol-2-ylamino)-1H-benzoimidazole-5-carboxylic acid [2-(4-hydroxy-phenyl)-ethyl]-amide]", "values": [
      {"measurement": "fold induction at 5 µM", "value": 29.6}
    ]},
    {"compound": "Cn1c(Nc2nc3ccc(OC(F)(F)F)cc3s2)nc2cc(C(=O)NCCc3cccc(O)c3)ccc21", "note": "[Example 252, 1-Methyl-2-(6-trifluoromethoxy-benzothiazol-2-ylamino)-1H-benzoimidazole-5-carboxylic acid [2-(3-hydroxy-phenyl)-ethyl]-amide]", "values": [
      {"measurement": "fold induction at 5 µM", "value": 13.1}
    ]},
    {"compound": "Cn1c(Nc2nc3ccc(OC(F)(F)F)cc3s2)nc2cc(C(=O)NCCC3CCC(O)CC3)ccc21", "note": "(stereo not drawn) [Example 253, 1-Methyl-2-(6-trifluoromethoxy-benzothiazol-2-ylamino)-1H-benzoimidazole-5-carboxylic acid [2-(4-hydroxy-cyclohexyl)-ethyl]-amide]", "values": [
      {"measurement": "fold induction at 5 µM", "value": 26.6}
    ]},
    {"compound": "Cn1c(Nc2nc3ccc(OC(F)(F)F)cc3s2)nc2cc(C(=O)NC[C@H]3CC[C@H](CO)CC3)ccc21", "note": "[Example 254, 1-Methyl-2-(6-trifluoromethoxy-benzothiazol-2-ylamino)-1H-benzoimidazole-5-carboxylic acid (trans-4-hydroxymethyl-cyclohexylmethyl)-amide]", "values": [
      {"measurement": "fold induction at 5 µM", "value": 47.4}
    ]},
    {"compound": "Cn1c(Nc2nc3ccc(Cl)cc3s2)nc2cc(C(=O)NC[C@H]3CC[C@H](CO)CC3)ccc21", "note": "[Example 255, 2-(6-Chloro-benzothiazol-2-ylamino)-1-methyl-1H-benzoimidazole-5-carboxylic acid (trans-4-hydroxymethyl-cyclohexylmethyl)-amide]", "values": [
      {"measurement": "fold induction at 5 µM", "value": 49.3}
    ]},
    {"compound": "Cn1c(Nc2nc3ccc(OC(F)(F)F)cc3s2)nc2cc(C(=O)NCCOCCOCCO)ccc21", "note": "[Example 256, 1-Methyl-2-(6-trifluoromethoxy-benzothiazol-2-ylamino)-1H-benzoimidazole-5-carboxylic acid {2-[2-(2-hydroxy-ethoxy)-ethoxy]-ethyl}-amide]", "values": [
      {"measurement": "fold induction at 5 µM", "value": 48}
    ]},
    {"compound": "Cn1c(Nc2nc3ccc(C(F)(F)F)cc3s2)nc2cc(C(=O)NCCOCCF)ccc21", "note": "[Example 257, 1-Methyl-2-(6-trifluoromethyl-benzothiazol-2-ylamino)-1H-benzoimidazole-5-carboxylic acid [2-(2-fluoro-ethoxy)-ethyl]-amide]", "values": [
      {"measurement": "fold induction at 5 µM", "value": 21.9}
    ]},
    {"compound": "Cn1c(Nc2nc3ccc(OC(F)(F)F)cc3s2)nc2cc(C(=O)NCCOCC(F)F)ccc21", "note": "[Example 258, 1-Methyl-2-(6-trifluoromethoxy-benzothiazol-2-ylamino)-1H-benzoimidazole-5-carboxylic acid [2-(2,2-difluoro-ethoxy)-ethyl]-amide]", "values": [
      {"measurement": "fold induction at 5 µM", "value": 24.6}
    ]},
    {"compound": "Cn1c(Nc2nc3ccc(Cl)cc3s2)nc2cc(C(=O)NCCOCC(F)F)ccc21", "note": "[Example 259, 2-(6-Chloro-benzothiazol-2-ylamino)-1-methyl-1H-benzoimidazole-5-carboxylic acid [2-(2,2-difluoro-ethoxy)-ethyl]-amide]", "values": [
      {"measurement": "fold induction at 3 µM", "value": 25.4}
    ]},
    {"compound": "COCCOCCNC(=O)c1ccc2c(c1)nc(Nc1nc3ccc(OC(F)(F)F)cc3s1)n2C", "note": "[Example 260, 1-Methyl-2-(6-trifluoromethoxy-benzothiazol-2-ylamino)-1H-benzoimidazole-5-carboxylic acid [2-(2-methoxy-ethoxy)-ethyl]-amide]", "values": [
      {"measurement": "fold induction at 5 µM", "value": 27.1}
    ]},
    {"compound": "COCCOCCNC(=O)c1ccc2c(c1)nc(Nc1nc3ccc(Cl)cc3s1)n2C", "note": "[Example 261, 2-(6-Chloro-benzothiazol-2-ylamino)-1-methyl-1H-benzoimidazole-5-carboxylic acid [2-(2-methoxy-ethoxy)-ethyl]-amide]", "values": [
      {"measurement": "fold induction at 5 µM", "value": 35.7}
    ]},
    {"compound": "COCCOCCNC(=O)c1ccc2c(c1)nc(Nc1nc3ccc(C(F)(F)F)cc3s1)n2C", "note": "[Example 262, 1-Methyl-2-(6-trifluoromethyl-benzothiazol-2-ylamino)-1H-benzoimidazole-5-carboxylic acid [2-(2-methoxy-ethoxy)-ethyl]-amide]", "values": [
      {"measurement": "fold induction at 3 µM", "value": 40}
    ]}
  ]
}
